Data as given in ChEMBL document CHEMBL6083251, “"Pseudosubstrate Envelope"/Free Energy Perturbation-Guided Design and Mechanistic Investigations of Benzothiazole HIV Capsid Modulators with High Ligand Efficiency” (J Med Chem, 2024).
Calls of active or inactive are those of the source. The calls are words filed in the database; no cut-off is given here.

Key:
[1] = system: Human immunodeficiency virus 1; assay: Anti-HIV activity against wild type HIV-1 IIIB infected in human MT4 cells assessed as protection against virus-induced cytopathic effect incubated for 5 days by spectrophotometric based MTT assay; type: functional, organism-based; conditions: Human immunodeficiency virus 1, IIIB, MT4, 120 h
[2] = Selectivity ratio of EC50 for wild type HIV-1 IIIB infected in human MT4 cells to EC50 for HIV-2 ROD infected in human MT-4 cells assessed as protection against virus-induced cytopathic effect incubated for 5 days by spectrophotometric based MTT assay; type: functional; conditions: time 5 day
[3] = Selectivity index, ratio of CC50 for human MT4 cells to EC50 for wild type HIV-1 IIIB infected in human MT4 cells; type: toxicity, cell-based; conditions: read-out: Selectivity Index
[4] = target: T1, Structural capsid protein (Human immunodeficiency virus 1, UniProt Q76129); assay: Binding affinity to monomeric HIV-1 NL4.3 capsid protein assessed as dissociation constant by SPR assay
T1 sequence (Q76129 whole entry): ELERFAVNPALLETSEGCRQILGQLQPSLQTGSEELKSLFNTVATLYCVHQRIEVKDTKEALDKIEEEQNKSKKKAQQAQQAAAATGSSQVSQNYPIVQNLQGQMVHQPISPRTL

[5] = target: T1, Structural capsid protein; assay: Binding affinity to hexameric HIV-1 NL4.3 capsid protein assessed as dissociation constant by SPR assay
[6] = system: Human immunodeficiency virus 1; assay: Antiviral activity against pseudotyped HIV-1 expressing luciferase-reporter transfected in HEK293T cells assessed as viral inhibition at early stage incubated for 48 hrs by Single-round infection assay; type: functional, organism-based
[7] = target: Human immunodeficiency virus type 1 reverse transcriptase (Human immunodeficiency virus 1) (UniProt Q72547); assay: Inhibition of HIV1 reverse transcriptase at 6 nM incubated for 1 hr by ELISA analysis
[8] = Half life in male Sprague-Dawley rat at 2 mg/kg, iv measured upto 24 hrs by LC-MS/MS analysis; type: ADME, organism-based; conditions: in vivo
[9] = Half life in male Sprague-Dawley rat at 10 mg/kg, sc measured upto 24 hrs by LC-MS/MS analysis; type: ADME, organism-based; conditions: in vivo
[10] = Tmax in male Sprague-Dawley rat at 2 mg/kg, iv measured upto 24 hrs by LC-MS/MS analysis; type: ADME, organism-based; conditions: in vivo
[11] = Tmax in male Sprague-Dawley rat at 10 mg/kg, sc measured upto 24 hrs by LC-MS/MS analysis; type: ADME, organism-based; conditions: in vivo
[12] = Cmax in male Sprague-Dawley rat at 2 mg/kg, iv measured upto 24 hrs by LC-MS/MS analysis; type: ADME, organism-based; conditions: in vivo
[13] = Cmax in male Sprague-Dawley rat at 10 mg/kg, sc measured upto 24 hrs by LC-MS/MS analysis; type: ADME, organism-based; conditions: in vivo
[14] = C0 in male Sprague-Dawley rat at 2 mg/kg, iv measured upto 24 hrs by LC-MS/MS analysis; type: ADME, organism-based; conditions: in vivo
[15] = AUC(0 to t) in male Sprague-Dawley rat at 2 mg/kg, iv measured upto 24 hrs by LC-MS/MS analysis; type: ADME, organism-based; conditions: in vivo
[16] = AUC(0 to infinity) in male Sprague-Dawley rat at 10 mg/kg, sc measured upto 24 hrs by LC-MS/MS analysis; type: ADME, organism-based; conditions: in vivo
[17] = Apparent volume of distribution in male Sprague-Dawley rat at 2 mg/kg, iv measured upto 24 hrs by LC-MS/MS analysis; type: ADME, organism-based; conditions: in vivo, read-out: Vz
[18] = Clearance in male Sprague-Dawley rat at 2 mg/kg, iv measured upto 24 hrs by LC-MS/MS analysis; type: ADME, organism-based; conditions: in vivo
[19] = MRT(0 to t) in male Sprague-Dawley rat at 10 mg/kg, sc measured upto 24 hrs by LC-MS/MS analysis; type: ADME, organism-based; conditions: in vivo
[20] = MRT(0 to infinity) in male Sprague-Dawley rat at 2 mg/kg, iv measured upto 24 hrs by LC-MS/MS analysis; type: ADME, organism-based; conditions: in vivo
[21] = […] bioavailability in male Sprague-Dawley rat at 10 mg/kg measured upto 24 hrs by LC-MS/MS analysis; type: ADME, organism-based; conditions: in vivo
[22] = system: Human immunodeficiency virus 1; assay: Antiviral activity against pseudotyped HIV-1 expressing luciferase-reporter transfected in HEK293T cells assessed as viral inhibition at late stage incubated for 48 hrs by Single-round infection assay; type: functional, organism-based
[23] = system: Human immunodeficiency virus 1; assay: Antiviral activity against pseudotyped HIV-1 expressing luciferase-reporter transfected in HEK293T cells assessed as increase in p24 level in progeny virions by ELISA analysis; type: functional, organism-based
[24] = Metabolic stability in human liver microsomes assessed as half life at 1 uM incubated for 60 mins by LC-MS/MS analysis; type: ADME, Microsome
[25] = Metabolic stability in human liver microsomes assessed as intrinsic clearance at 1 uM incubated for 60 mins by LC-MS/MS analysis; type: ADME, Microsome; conditions: read-out: CLH
[26] = Acute toxicity in male Kunming mouse assessed as death at 1000 mg/kg, IG administered via gavage; type: organism-based; conditions: in vivo, po
[27] = Acute toxicity in male Kunming mouse assessed as convulsion at 1000 mg/kg, IG administered via gavage; type: organism-based; conditions: in vivo, po
[28] = Acute toxicity in male Kunming mouse assessed as sedation at 1000 mg/kg, IG administered via gavage; type: organism-based; conditions: in vivo, po
[29] = Acute toxicity in male Kunming mouse assessed as anorexia at 1000 mg/kg, IG administered via gavage; type: organism-based; conditions: in vivo, po
[30] = Acute toxicity in male Kunming mouse assessed as body weight gain at 1000 mg/kg, IG administered via gavage; type: organism-based; conditions: in vivo, po
[31] = Acute toxicity in female Kunming mouse assessed as body weight gain at 1000 mg/kg, IG administered via gavage; type: organism-based; conditions: in vivo, po
[32] = Acute toxicity in female Kunming mouse assessed as death at 1000 mg/kg, IG administered via gavage; type: organism-based; conditions: in vivo, po
[33] = Acute toxicity in female Kunming mouse assessed as sedation at 1000 mg/kg, IG administered via gavage; type: organism-based; conditions: in vivo, po
[34] = Acute toxicity in female Kunming mouse assessed as anorexia at 1000 mg/kg, IG administered via gavage; type: organism-based; conditions: in vivo, po
[35] = Subacute toxicity in male Kunming mouse assessed as change in body weight at 50 mg/kg, po administered every other day for 14 days; type: organism-based; conditions: in vivo, 336 h, time 14 day
[36] = Subacute toxicity in male Kunming mouse assessed as tremor at 50 mg/kg, po administered every other day for 14 days; type: organism-based; conditions: in vivo, 336 h, time 14 day
[37] = Subacute toxicity in male Kunming mouse assessed as convulsion at 50 mg/kg, po administered every other day for 14 days; type: organism-based; conditions: in vivo, 336 h, time 14 day
[38] = Subacute toxicity in male Kunming mouse assessed as body jerks at 50 mg/kg, po administered every other day for 14 days; type: organism-based; conditions: in vivo, 336 h, time 14 day
[39] = Subacute toxicity in male Kunming mouse assessed as hypoactivity at 50 mg/kg, po administered every other day for 14 days; type: organism-based; conditions: in vivo, 336 h, time 14 day
[40] = Subacute toxicity in male Kunming mouse assessed as piloerection at 50 mg/kg, po administered every other day for 14 days; type: organism-based; conditions: in vivo, 336 h, time 14 day
[41] = Subacute toxicity in male Kunming mouse assessed as scattered lymphocyte infiltration in heart at 50 mg/kg, po administered every other day for 14 days by H and E staining based analysis; type: organism-based; conditions: in vivo, 336 h, time 14 day
[42] = Subacute toxicity in male Kunming mouse assessed as focal lymphocyte infiltration in liver at 50 mg/kg, po administered every other day for 14 days by H and E staining based analysis; type: organism-based; conditions: in vivo, 336 h, time 14 day
[43] = Subacute toxicity in male Kunming mouse assessed as pathological damage in lungs at 50 mg/kg, po administered every other day for 14 days by H and E staining based analysis; type: organism-based; conditions: in vivo, 336 h, time 14 day
[44] = Subacute toxicity in male Kunming mouse assessed as pathological damage in kidney at 50 mg/kg, po administered every other day for 14 days by H and E staining based analysis; type: organism-based; conditions: in vivo, 336 h, time 14 day

In the case of `CN(C(=O)[C@H](Cc1cc(F)cc(F)c1)NC(=O)Cc1c[nH]c2ccc(O)cc12)c1ccc2scnc2c1`, the EC50 [1] is reported as 2.69 nM, the “Ratio EC50” value [2] is reported as 0.03 and the selectivity ratio [3] is reported as 49400. The Kd [4] was 81.1 nM, the Kd [5] was 24.6 nM and the Activity [6] was “Active”. For the same compound, the inhibition [7] was “inactive”, the half-life [8] was 0.198 h and the half-life [9] was 3.66 h. For the same compound, the Tmax [10] was 4.98 min, the Tmax [11] was 1.33 h and the Cmax [12] was 18.8 ng/mL. It also gave a Cmax [13] of 4.99 ng/mL, a C0 at 24 h [14] of 33.7 ng/mL and an AUC(0-t) at 24 h [15] of 5.53 ng·h/mL. It also gave an AUC(0-inf) [16] of 33.6 ng·h/mL, a Vd [17] of 72.9 L/kg and a CL [18] of 4712.52 mL/min/kg. For the same compound, the MRT last at 24 h [19] was 3.04 h, the MRT inf [20] was 0.201 h and the bioavailability [21] was 84.2%. For the same compound, the Activity [22] was “Active”, the Activity [23] was “Active” and the half-life at 1 µM [24] was 1.52 h. The CLint scaled at 1 µM [25] was 15.2 mL/min/kg, the Activity [26] was “Non-toxic” and the Activity [27] was “Non-toxic”. The Activity [28] was “Non-toxic”, the Activity [29] was “Non-toxic” and the Activity [30] was “Non-toxic”. For the same compound, the Activity [31] was “Non-toxic”, the Activity [32] was “Non-toxic” and the Activity [33] was “Non-toxic”. For the same compound, the Activity [34] was “Non-toxic”, the Activity [35] was “Non-toxic” and the Activity [36] was “Non-toxic”. For the same compound, the Activity [37] was “Non-toxic”, the Activity [38] was “Non-toxic” and the Activity [39] was “Non-toxic”. For the same compound, the Activity [40] was “Non-toxic”, the Activity [41] was “Non-toxic” and the Activity [42] was “Toxic”. The Activity [43] was “Non-toxic” and the Activity [44] was “Non-toxic”.
